# Data taken from patent US11371022B2, “Blood-brain barrier endothelial cells derived from pluripotent stem cells for blood-brain barrier models” (PRESIDENT AND FELLOWS OF HARVARD COLLEGE, priority 2016, dated 2022).
# Assays:
# efflux pump = test: DiOC2 permeability test of efflux pump function in BBB chip; type: in vitro ADME, human; conditions: hypoxia stimulation vs normoxia BBB chip; FIG. 9B
# Description: FIGS. 9A-9C are bar graphs showing the inhibition of the efflux transporter in control and hypoxic stimulated BBB chips by verapamil, MK-571 or KO143. […] All inhibitor-treated samples were independently normalized to the corresponding mock control.
# A non-limiting example of assembling a BBB model in a microfluidic chip having flow, using the hypoxia differentiated PSCs-to-BMVECs is as follows. To assemble the BBB model on microfluidic chips, polydimethylsiloxane (PDMS) microfluidic chip was plasma treated (0.5 mbar, 50 W, 2 min) and coated with 0.01% poly-L-lysine solution for 1 hour. Subsequently, 400 ug/ml collagen IV and 100 μg/ml fibronectin were treated to microfluidic chips and incubated overnight in normal cell culture condition (37 C, 5% CO2, 20% O2). A day after coating, ECM solution was rinsed with EC+RA medium. The harvested astrocytes and pericytes were resuspended at 0.7 and 0.3 million cells/mL in EC+RA medium. Mixture of cells was seeded on apical micro-channel, and placed in incubator for 1 hour allowing the cells to adhere to membrane. The differentiated BMVECs on 6-cm plastic culture dish were dissociated using Accutase, harvested, and resuspended 25 million cells/mL in degassed EC+RA media. The differentiated BMVECs were seeded on basal micro-channel, and flip the entire PDMS chip upside down in petri dish to allow the BMVEC to attach to the membrane. […]
# ABCB (P-gp) [1] = target: T1, ABCB (P-gp) (Homo sapiens, UniProt P08183); conditions: iPS-derived BMVEC generated using published protocol, in vitro; cited from earlier work
# T1 construct: host or cells: iPS-derived BMVEC (published protocol)
# ABCB (P-gp) [2] = target: T2, ABCB (P-gp) (Mus musculus, UniProt P21447); conditions: cited from earlier work
# T2 construct: compared to in vivo efflux ratios (2.4-fold) (Cell, 1994, 77, 4)
# ABCB1 = target: T3, ABCB1 (Homo sapiens, UniProt P08183); test: Doxorubicin permeability across BBB chip with or without verapamil (efflux pump inhibition); type: in vitro ADME; conditions: FIG. 9C
# T3 construct: The BBB model chip comprises iPSC-derived, hypoxia-stimulated or -differentiated BMVECs; endogenous in cells; host or cells: human iPSC (IMR90-4)-derived brain microvascular endothelial cells, co-cultured with astrocytes and pericytes on a microfluidic chip
# T3 sequence (P08183 whole entry): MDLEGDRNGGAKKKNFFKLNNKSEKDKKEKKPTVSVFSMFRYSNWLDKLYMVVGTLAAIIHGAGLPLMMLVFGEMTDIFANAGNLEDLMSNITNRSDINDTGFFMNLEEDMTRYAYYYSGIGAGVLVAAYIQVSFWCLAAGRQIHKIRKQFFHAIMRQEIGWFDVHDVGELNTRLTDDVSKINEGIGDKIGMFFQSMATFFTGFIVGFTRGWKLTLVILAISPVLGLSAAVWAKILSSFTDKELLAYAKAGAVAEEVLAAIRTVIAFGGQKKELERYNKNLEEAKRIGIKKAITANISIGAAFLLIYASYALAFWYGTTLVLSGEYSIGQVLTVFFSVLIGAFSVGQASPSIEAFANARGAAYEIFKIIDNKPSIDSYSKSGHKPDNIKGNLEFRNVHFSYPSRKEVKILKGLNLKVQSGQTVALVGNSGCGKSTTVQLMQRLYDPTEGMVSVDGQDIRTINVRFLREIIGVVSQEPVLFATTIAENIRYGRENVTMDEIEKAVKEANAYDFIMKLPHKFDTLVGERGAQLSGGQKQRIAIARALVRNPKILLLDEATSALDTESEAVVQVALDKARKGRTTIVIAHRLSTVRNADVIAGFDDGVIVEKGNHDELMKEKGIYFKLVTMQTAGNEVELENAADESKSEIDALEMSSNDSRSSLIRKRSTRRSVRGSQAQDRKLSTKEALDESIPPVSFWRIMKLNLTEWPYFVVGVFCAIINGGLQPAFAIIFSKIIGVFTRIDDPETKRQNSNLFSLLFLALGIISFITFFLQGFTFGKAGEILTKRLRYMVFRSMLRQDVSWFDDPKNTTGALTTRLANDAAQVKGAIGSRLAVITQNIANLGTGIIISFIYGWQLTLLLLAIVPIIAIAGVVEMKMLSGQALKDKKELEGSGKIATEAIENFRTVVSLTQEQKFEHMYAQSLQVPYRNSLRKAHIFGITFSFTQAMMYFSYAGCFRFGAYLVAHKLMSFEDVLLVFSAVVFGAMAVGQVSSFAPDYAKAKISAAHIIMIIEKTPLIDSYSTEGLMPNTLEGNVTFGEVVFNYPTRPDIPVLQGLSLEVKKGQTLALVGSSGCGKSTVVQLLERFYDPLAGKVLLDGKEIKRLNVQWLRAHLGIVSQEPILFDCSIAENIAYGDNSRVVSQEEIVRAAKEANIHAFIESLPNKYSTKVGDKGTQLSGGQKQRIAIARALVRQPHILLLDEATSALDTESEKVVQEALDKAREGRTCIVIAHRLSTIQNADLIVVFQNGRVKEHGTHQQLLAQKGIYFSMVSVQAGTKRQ
# Description: Doxorubicin is known as a substrate of ABCB1.
# T1 sequence (P08183 whole entry): as above
# T2 sequence (P21447 whole entry): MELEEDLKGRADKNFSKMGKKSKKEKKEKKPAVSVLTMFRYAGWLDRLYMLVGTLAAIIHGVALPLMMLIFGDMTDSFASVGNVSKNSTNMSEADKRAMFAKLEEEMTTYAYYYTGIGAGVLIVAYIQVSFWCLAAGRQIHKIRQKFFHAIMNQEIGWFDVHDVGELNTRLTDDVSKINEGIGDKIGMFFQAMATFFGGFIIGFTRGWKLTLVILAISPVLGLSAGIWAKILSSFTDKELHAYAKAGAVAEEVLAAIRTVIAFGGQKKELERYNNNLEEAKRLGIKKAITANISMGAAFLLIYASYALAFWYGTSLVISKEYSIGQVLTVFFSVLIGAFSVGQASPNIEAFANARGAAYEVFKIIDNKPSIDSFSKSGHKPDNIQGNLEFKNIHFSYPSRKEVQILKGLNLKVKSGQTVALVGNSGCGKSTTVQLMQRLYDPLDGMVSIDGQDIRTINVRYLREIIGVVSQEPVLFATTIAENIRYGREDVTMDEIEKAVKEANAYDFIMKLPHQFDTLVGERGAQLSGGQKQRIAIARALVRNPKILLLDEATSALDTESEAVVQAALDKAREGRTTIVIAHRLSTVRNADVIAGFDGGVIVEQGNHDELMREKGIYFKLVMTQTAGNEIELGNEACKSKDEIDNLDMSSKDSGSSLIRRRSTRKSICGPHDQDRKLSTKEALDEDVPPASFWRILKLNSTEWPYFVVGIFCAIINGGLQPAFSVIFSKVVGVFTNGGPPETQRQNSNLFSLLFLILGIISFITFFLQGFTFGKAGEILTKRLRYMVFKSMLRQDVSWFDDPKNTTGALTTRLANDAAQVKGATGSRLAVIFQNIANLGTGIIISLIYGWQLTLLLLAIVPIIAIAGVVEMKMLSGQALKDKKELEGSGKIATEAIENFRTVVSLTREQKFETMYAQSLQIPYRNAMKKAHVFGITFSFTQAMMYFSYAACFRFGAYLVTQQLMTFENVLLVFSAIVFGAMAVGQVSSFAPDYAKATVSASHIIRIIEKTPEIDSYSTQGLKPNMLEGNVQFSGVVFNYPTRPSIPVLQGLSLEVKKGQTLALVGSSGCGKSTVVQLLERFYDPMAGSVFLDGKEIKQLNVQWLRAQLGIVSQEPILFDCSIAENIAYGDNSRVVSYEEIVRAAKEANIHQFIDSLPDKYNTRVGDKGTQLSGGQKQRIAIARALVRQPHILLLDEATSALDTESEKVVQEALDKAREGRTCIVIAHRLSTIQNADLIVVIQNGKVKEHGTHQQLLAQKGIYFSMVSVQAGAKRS
SMILES,efflux pump function in DiO2 test (efflux pump),efflux ratio (ABCB (P-gp) [1]) [fold],in vivo efflux ratios (ABCB (P-gp) [2]) [fold],"doxorubicin permeability, increase by verapamil treatment (ABCB1; hypoxia BBB chip, verapamil (ABCB1 inhibitor) vs mock control) [fold]",change of doxorubicin BBB penetration by verapamil (ABCB1; normoxia control BBB chip)
CCN1/C(=C/C=C/c2oc3ccccc3[n+]2CC)Oc2ccccc21.[I-] [DiO2],enhanced efflux pump function,–,–,–,–
"COc1cccc2c1C(=O)c1c(O)c3c(c(O)c1C2=O)C[C@@](O)(C(=O)CO)C[C@@H]3O[C@H]1C[C@H](N)[C@H](O)[C@H](C)O1 [Doxorubicin, doxorubicin]",–,1.3,2.4,2.7,did not show significant change
